In PMC8071193, “Dual-Target Compounds against Type 2 Diabetes Mellitus: Proof of Concept for Sodium Dependent Glucose Transporter (SGLT) and Glycogen Phosphorylase (GP) Inhibitors” (Pharmaceuticals, 2021):

Columns and labels:
[1] = test system: sodium dependent glucose cotransporter (SGLT2); design: method as in earlier work; conditions: ref 19 (1), 35 (2), 36 (3), 37 (4), 38 (5), 34 (6), cited from earlier work; for selectivity SGLT2/SGLT1: Table 1, value in brackets; for IC50: Table 1, read-out: IC50 against SGLT2
SGLT2 = target: T1, SGLT2 (Homo sapiens, UniProt P31639); test: SGLT2 inhibition, 2-NBDG glucose uptake in SGLT2-overexpressing TSA201 cells; type: cell-based; conditions: for IC50: TSA-201 cells, NI: no inhibition at 1000 µM
T1 construct: host or cells: TSA201 (Human Embryonal Kidney) cells, lentiviral transduction, puromycin selection
T1 sequence (P31639 1-672): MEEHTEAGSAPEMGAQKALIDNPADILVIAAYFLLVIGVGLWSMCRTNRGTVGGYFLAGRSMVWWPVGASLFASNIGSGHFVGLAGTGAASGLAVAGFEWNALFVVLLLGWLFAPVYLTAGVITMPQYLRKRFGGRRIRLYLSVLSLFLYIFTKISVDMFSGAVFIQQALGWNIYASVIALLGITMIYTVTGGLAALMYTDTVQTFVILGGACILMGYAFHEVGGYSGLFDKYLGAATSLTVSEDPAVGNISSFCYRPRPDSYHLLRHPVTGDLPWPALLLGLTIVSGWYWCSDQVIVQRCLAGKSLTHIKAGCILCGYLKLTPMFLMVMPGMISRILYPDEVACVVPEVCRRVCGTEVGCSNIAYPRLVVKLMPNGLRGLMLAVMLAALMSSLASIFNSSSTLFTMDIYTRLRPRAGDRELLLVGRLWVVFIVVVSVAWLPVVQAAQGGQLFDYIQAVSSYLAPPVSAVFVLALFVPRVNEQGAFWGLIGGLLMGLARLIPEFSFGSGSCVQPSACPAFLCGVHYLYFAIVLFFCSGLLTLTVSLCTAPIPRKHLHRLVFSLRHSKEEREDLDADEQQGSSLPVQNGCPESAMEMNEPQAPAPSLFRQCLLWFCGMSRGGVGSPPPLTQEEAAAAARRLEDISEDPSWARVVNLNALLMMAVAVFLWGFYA
Description: (§1) Cells (100,000 cells, TSA201) were plated into each well of a 24-well plate and incubated overnight at 37 °C. […] Two wells were treated only with hexadimetrine bromide as a control. After 24 h of transfection, the medium was changed to fresh medium without antibiotics. Cells were collected and transferred into T-25 flasks after 3 days. On the fifth day, 10 µg/mL puromycin was added to select only the transfected cells. The nontransfected cells cannot survive this high concentration of antibiotic. To keep up the selection, the medium including 10 µg/mL puromycin was replaced every two days. The cells lived under puromycin pressure until the day of the experiments.
(§2) TSA201 cells (25,000) with and without overexpressed SGLT1 or 2 were put into poly-L-lysine (P5999, Sigma-Aldrich, St. Luis, MO, USA) treated wells of a 96-well plate. The next day, the cells were starved for 1 h with 90 µL glucose-free medium (D5036-10X1L Sigma-Aldrich, St. Luis, MO, USA) (with or without inhibitor). After starving, cells were treated with 100 µM 2-NBDG and incubated for 30 min (again with or without inhibitor). The incubation time of cells with possible inhibitors was 90 min altogether. After incubation, the medium was removed, the wells were washed with PBS twice, lysed with 100 µL lysis buffer (0.1 M KH2PO4 + 1% Triton-x, pH = 11), and stored at -20°C. […] Subsequently, the protein concentration was measured and NBDG uptake was normalized to protein amount.
(§3) After selecting optimal concentrations, each compound was tested at four different concentrations. […] To determine the specific effects of the compounds on SGLT1 or 2, the glucose uptake values in TSA201 cells without SGLT overexpression were subtracted from the values in TSA201 cell overexpressing SGLT. […] All calculations were prepared using the GraphPad Prism software (GraphPad Software, Inc., SanDiego, CA, USA). The data were plotted on a logarithmic scale as a function of inhibitor concentration. The IC50 values were calculated by non-linear regression analysis from sigmoidal dose-response curves. The results of kinetic experiments were calculated from at least three independent experiments. Each experiment contained four parallel samples that were averaged. The standard deviations were calculated based on the average values for the independent experiments.

[2] = target: T2, rabbit muscle glycogen phosphorylase b (rmGPb) (Oryctolagus cuniculus, UniProt P00489); conditions: Table 3; NI: no inhibition at 625 µM; cited from earlier work
T2 construct: Glycogen phosphorylase b was isolated from rabbit skeletal muscle; from tissue; host or cells: rabbit skeletal muscle
T2 sequence (P00489 1-843): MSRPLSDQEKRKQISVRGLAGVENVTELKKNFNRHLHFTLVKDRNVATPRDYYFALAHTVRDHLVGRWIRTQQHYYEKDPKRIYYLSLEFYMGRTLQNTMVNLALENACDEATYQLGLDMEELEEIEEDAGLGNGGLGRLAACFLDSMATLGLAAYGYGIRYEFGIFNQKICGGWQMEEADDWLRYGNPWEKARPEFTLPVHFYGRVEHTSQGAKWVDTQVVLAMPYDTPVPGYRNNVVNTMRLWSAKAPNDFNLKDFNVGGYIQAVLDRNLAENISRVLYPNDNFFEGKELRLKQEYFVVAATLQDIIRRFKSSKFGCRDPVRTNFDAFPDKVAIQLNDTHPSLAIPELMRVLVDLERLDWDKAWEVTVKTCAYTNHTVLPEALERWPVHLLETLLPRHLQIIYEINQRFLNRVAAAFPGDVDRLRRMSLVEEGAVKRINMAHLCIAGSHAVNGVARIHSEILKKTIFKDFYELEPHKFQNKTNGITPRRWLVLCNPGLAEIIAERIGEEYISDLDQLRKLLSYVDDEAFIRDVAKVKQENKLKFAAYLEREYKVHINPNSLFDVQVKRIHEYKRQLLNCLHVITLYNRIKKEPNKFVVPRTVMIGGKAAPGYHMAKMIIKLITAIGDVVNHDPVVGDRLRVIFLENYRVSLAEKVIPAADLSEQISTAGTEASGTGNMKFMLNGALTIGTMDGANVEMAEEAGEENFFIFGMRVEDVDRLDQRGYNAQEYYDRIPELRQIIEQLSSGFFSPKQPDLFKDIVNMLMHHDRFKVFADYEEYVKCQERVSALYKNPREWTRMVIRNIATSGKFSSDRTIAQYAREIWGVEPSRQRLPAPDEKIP

SGLT1 = target: T3, SGLT1 (Homo sapiens, UniProt P13866); test: SGLT1 inhibition, 2-NBDG glucose uptake in SGLT1-overexpressing TSA201 cells; type: cell-based; conditions: TSA-201 cells, NI: no inhibition at 1000 µM
T3 construct: host or cells: TSA201 (Human Embryonal Kidney) cells, lentiviral transduction, puromycin selection
T3 sequence (P13866 1-664): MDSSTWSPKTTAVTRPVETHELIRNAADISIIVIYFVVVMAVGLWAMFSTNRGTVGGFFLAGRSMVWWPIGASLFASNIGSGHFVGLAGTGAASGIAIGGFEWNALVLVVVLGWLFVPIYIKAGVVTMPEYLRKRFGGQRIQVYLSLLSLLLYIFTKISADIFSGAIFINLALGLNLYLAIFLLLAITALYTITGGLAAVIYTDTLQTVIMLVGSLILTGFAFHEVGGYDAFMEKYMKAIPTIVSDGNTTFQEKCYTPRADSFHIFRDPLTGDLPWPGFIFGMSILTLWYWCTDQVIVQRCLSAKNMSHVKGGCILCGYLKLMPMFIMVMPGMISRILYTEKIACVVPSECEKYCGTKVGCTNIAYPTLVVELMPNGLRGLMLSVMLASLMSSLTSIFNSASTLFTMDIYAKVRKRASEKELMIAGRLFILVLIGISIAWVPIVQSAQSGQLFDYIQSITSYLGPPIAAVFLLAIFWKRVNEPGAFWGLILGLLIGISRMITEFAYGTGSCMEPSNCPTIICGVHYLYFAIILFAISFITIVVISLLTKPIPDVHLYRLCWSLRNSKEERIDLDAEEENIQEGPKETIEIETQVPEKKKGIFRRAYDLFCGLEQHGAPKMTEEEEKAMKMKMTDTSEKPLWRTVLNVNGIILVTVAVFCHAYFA
Description: as §1, §2, §3

[3] = target: T2, rabbit muscle glycogen phosphorylase b (rmGPb); test: Glycogen phosphorylase b enzyme kinetic inhibition assay (direction of glycogen synthesis); type: biochemical; conditions: Table 2; NI: no inhibition at 625 µM
Source text: The 2-NBDG (2-deoxy-2-[(7-nitro-2,1,3-benzoxadiazol-4-yl)amino]-D-glucose, cat. 11046) was purchased from Cayman Chemical Company (Ann Arbor, MI, USA). Lentivirus for SLC5A1 and SLC5A2 (NM_000343 for SGLT1, and NM-003041 for SGLT2) were obtained from Origene (Rockville, MD, USA). These expression vectors contain a puromycin resistance gene. […] CyQUANT^TM Cell Proliferation Assay Kit (2036547) was from Invitrogen (Carlsbad, CA, USA). Glycogen phosphorylase b was isolated from rabbit skeletal muscle according to the method of Fischer and Krebs.
Enzyme activity in the direction of glycogen synthesis was assayed. Kinetic data were collected using the muscle phosphorylase b (dephosphorylated, GPb) isoform. […] Enzymatic activities were presented in the form of a double-reciprocal plot (Lineweaver-Burk). The plots were analysed by a non-linear data analysis program. The inhibitor constants (Ki) were determined by secondary plots, replotting the slopes from the Lineweaver-Burk plot against the inhibitor concentrations. The means of standard errors for all calculated kinetic parameters averaged to less than 10% [78, 79].

[4] = Table 2, compounds 1-2 used as controls for in-house assay

| SMILES | IC50 (SGLT2; Table 3) [µM] | IC50 (SGLT1; Table 3) [µM] | selectivity SGLT2/SGLT1 [1] | IC50 [1] [µM] | Ki [2] [µM] | further results |
| --- | --- | --- | --- | --- | --- | --- |
| Cc1ccc([C@@H]2O[C@H](CO)[C@@H](O)[C@H](O)[C@H]2O)cc1Cc1ccc(-c2ccc(F)cc2)s1 [compound 4, canagliflozin] | – | – | 414 | 0.0022 | – | – |
| O=C(CCc1ccc(O)cc1)c1c(O)cc(O)cc1O[C@@H]1O[C@H](CO)[C@@H](O)[C@H](O)[C@H]1O [compound 1, phlorizin] | – | – | – | 0.033 | – | – |
| OC[C@H]1O[C@@H](c2ccc(F)c(Cc3cc4ccccc4s3)c2)[C@H](O)[C@@H](O)[C@@H]1O [compound 5, ipragliflozin] | – | – | 254 | 0.0074 | – | – |
| OC[C@H]1O[C@@H](c2nccc(Cc3ccc4ccccc4c3)n2)[C@H](O)[C@@H](O)[C@@H]1O [16d, 2-(β-D-Glucopyranosyl)-4-(2-naphthylmethyl)pyrimidine] | – | – | – | – | – | IC50 [3]: > 625 µM; SGLT2 inhibition (in words) (SGLT2; TSA201 cells, up to 1000 µM): non-inhibitory; IC50 (SGLT2; [4]): > 1000 µM; IC50 (SGLT1; [4]): > 1000 µM |

The next lines start with results.

| IC50 (SGLT2; Table 3) [µM] | IC50 (SGLT1; Table 3) [µM] | SMILES | selectivity SGLT2/SGLT1 [1] | IC50 [1] [µM] | Ki [2] [µM] | further results |
| --- | --- | --- | --- | --- | --- | --- |
| 9.1 ± 2.94 | 242 ± 37.9 | OC[C@H]1O[C@@H](c2cn(-c3ccccc3)nn2)[C@H](O)[C@@H](O)[C@@H]1O [22a] | – | – | > 625 | – |
| 111 ± 27.6 | 23.8 ± 5.72 | OC[C@H]1O[C@@H](c2cn(-c3ccc4ccccc4c3)nn2)[C@H](O)[C@@H](O)[C@@H]1O [22b] | – | – | > 625 | – |
